{
  "source": "patent US20240285634A1",
  "about": "“COMPOUND AND METHOD FOR TREATING CHEMOTHERAPY-ASSOCIATED GASTROINTESTINAL SIDE EFFECTS” (ONQUALITY PHARMACEUTICALS CHINA LTD., priority 2021, published 2024)",
  "key": {"[1]": {"system": "Chemotherapeutic agent-caused diarrhea models of Balb/c mice", "assay": "Relieving effect on diarrhea caused by a chemotherapeutic agent (Examples 1-201)", "type": "in vivo", "how_it_was_run": "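Balb/c mice (10/group) given Formula I compound by injection or gavage, then a chemotherapeutic agent to induce diarrhea, with solvent and chemotherapy-only controls. Diarrhea graded 0–3 daily; relative remission rate = % of treated mice graded below the chemotherapy-group average.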"}, "[2]": {"system": "Balb/c mice, diarrhea caused by continuous administration of a chemotherapeutic agent", "assay": "Relieving effect on diarrhea caused by the continuous administration of a chemotherapeutic agent (Examples 365-384)", "type": "in vivo", "text": "Balb/c mice were fed for 1 week, and then divided into groups. The experiment was divided into a control group, a chemotherapeutic agent group, and a group of the compound as shown in Formula I, each of which comprised 10 mice, to perform the administration experiment, for which the administration dosage, mode, time and frequency were shown in Table 5. The control group: being injected or intragastrically administered with the same solvent as that used in the group of the compound as shown in Formula I (the administration mode and time were shown in Table 5), and then being injected or intragastrically administered with the same solvent as that used in the chemotherapeutic agent group (the administration mode was shown in Table 5); the chemotherapeutic agent group: being injected or intragastrically administered with the same solvent as that used in the group of the compound as shown in Formula I (the administration mode and time were shown in Table 5), and then being injected or intragastrically administered with the chemotherapeutic agent (the type, administration mode, time and dosage were shown in Table 5); the group of the compound as shown in Formula I: being injected or intragastrically administered with the compound as shown in Formula I (the administration mode and time were shown in Table 5), and then being administered with the chemotherapeutic agent (the type, administration mode, time and dosage were shown in Table 5).\nThe scoring of diarrhea can refer to the method of Akinobu Kurita (Cancer Chemother Pharmacol 2000; 46:211-20.), Grade 0): normal feces; Grade 1: mild diarrhea, the stools is slightly wet and soft; Grade 2: moderate diarrhea, loose stools and mild perianal contamination; Grade 3: severe diarrhea, watery stools and accompanied by severe perianal staining (see FIG. 1). It is regarded as effective remission when the diarrhea grading of mice in the group of the compound as shown in Formula I is reduced compared with the average diarrhea grading of mice in the chemotherapeutic agent group.\nThe diarrhea grading of mice was observed and recorded every day. At the end of the experiment, the number of mice in the group of the compound as shown in Formula I whose diarrhea grading was lower than that of mice in the chemotherapeutic agent group was recorded. Table 5 lists various animal experiment combinations of chemotherapeutic agents and the compound as shown in Formula I, as well as the corresponding experimental results. (Relative remission rate %=the number of mice in the group of the compound as shown in Formula I whose diarrhea has been effectively relieved/the total number of mice in the group of the compound as shown in Formula I*100%. The establishment rate of diarrhea model in the chemotherapeutic agent group was 50%-80%, that is, about 5-8 of 10 mice developed diarrhea during the experiment, and there were cases of individual mice death or not developing diarrhea.)"}},
  "data": [
    {"molecule": "O=C1NCC2(CCCCC2)n2c1cc1cnc(Nc3ccc(N4CCNCC4)cn3)nc12", "note": "[Compound II]", "values": [
      {"measurement": "Relative remission rate", "setting": "[1]; Ex 31, 5-Fu 125 mg/kg intraperitoneal single, compound 50 mg/kg intraperitoneal single 0.5 h before, cycle 10 days", "result": 30, "unit": "%"},
      {"measurement": "Relative remission rate", "setting": "[1]; Ex 32, 5-Fu 125 mg/kg intraperitoneal single, compound 100 mg/kg intraperitoneal single 4 h before, cycle 10 days", "result": 60, "unit": "%"},
      {"measurement": "Relative remission rate", "setting": "[1]; Ex 33, 5-Fu 125 mg/kg intraperitoneal single, compound 150 mg/kg intraperitoneal single 12 h before, cycle 10 days", "result": 40, "unit": "%"},
      {"measurement": "Relative remission rate", "setting": "[1]; Ex 173, Fluorouracil 50 + oxaliplatin 5 + irinotecan 50 + tetrahydrofolic acid 90 mg/kg intraperitoneal single, compound 100 mg/kg oral single 0.5 h before, cycle 7 days", "result": 30, "unit": "%"},
      {"measurement": "Relative remission rate", "setting": "[1]; Ex 174, Fluorouracil 50 + oxaliplatin 5 + irinotecan 50 + tetrahydrofolic acid 90 mg/kg intraperitoneal single, compound 100 mg/kg oral single 4 h before, cycle 7 days", "result": 30, "unit": "%"},
      {"measurement": "Relative remission rate", "setting": "[1]; Ex 175, Fluorouracil 50 + oxaliplatin 5 + irinotecan 50 + tetrahydrofolic acid 90 mg/kg intraperitoneal single, compound 100 mg/kg oral single 8 h before, cycle 7 days", "result": 40, "unit": "%"},
      {"measurement": "Relative remission rate", "setting": "[1]; Ex 176, Fluorouracil 50 + oxaliplatin 5 + irinotecan 50 + tetrahydrofolic acid 90 mg/kg intraperitoneal single, compound 100 mg/kg oral single 12 h before, cycle 7 days", "result": 30, "unit": "%"},
      {"measurement": "Relative remission rate", "setting": "[1]; Ex 177, Fluorouracil 50 + oxaliplatin 5 + irinotecan 50 + tetrahydrofolic acid 90 mg/kg intraperitoneal single, compound 100 mg/kg oral single 24 h before, cycle 7 days", "result": 30, "unit": "%"},
      {"measurement": "Relative remission rate", "setting": "[1]; Ex 197, Gemcitabine (GEM) 120 mg/kg intravenous single, compound 100 mg/kg oral single 24 h before, cycle 8 days", "result": 40, "unit": "%"},
      {"measurement": "Relative remission rate", "setting": "[1]; Ex 198, Etoposide 60 + carboplatin 5 mg/kg intraperitoneal single, compound 100 mg/kg oral single 2 h before, cycle 10 days", "result": 50, "unit": "%"},
      {"measurement": "diarrhea gradings compared with the chemotherapeutic agent group", "setting": "[1]; administered before the chemotherapeutic agent, Table 3 and FIG. 2", "result": "relieved to different degrees"},
      {"measurement": "Relative remission rate (%)", "setting": "[2]; Example 381, Fluorouracil (5-Fu) intravenous injection 70 mg/kg once a day, for 3 days, compound intramuscular injection 100 mg/kg once a day, for 3 days, 0.5 h before chemotherapeutic agent, cycle 8 days", "result": 40, "unit": "%"},
      {"measurement": "relieving effects on diarrhea", "setting": "[2]; continuous administration of the chemotherapeutic agent for 7 days or less", "result": "have relieving effects"},
      {"measurement": "relieving effects on diarrhea", "setting": "[2]; continuous administration of the chemotherapeutic agent for less than 7 days", "result": "significant"}
    ]}
  ]
}
